In patent US11498899B2, “Nitrone herbicides” (FMC Corporation, priority 2016, dated 2022):

Columns and labels:
[1] = system: barnyardgrass (Echinochloa crus-galli); experiment: Test A preemergence, visual injury rating 0-100 (0 no effect, 100 complete control); assay type: in vivo
[2] = system: pigweed (Amaranthus retroflexus); experiment: Test A preemergence, visual injury rating 0-100; assay type: in vivo
[3] = system: ragweed (common ragweed, Ambrosia elatior); experiment: Test A preemergence, visual injury rating 0-100; assay type: in vivo
[4] = system: ryegrass, Italian (Italian ryegrass, Lolium multiflorum); experiment: Test A preemergence, visual injury rating 0-100; assay type: in vivo
[5] = system: foxtail, giant (giant foxtail, Setaria faberii); experiment: Test A preemergence, visual injury rating 0-100; assay type: in vivo
[6] = system: kochia (Kochia scoparia); experiment: Test A preemergence, visual injury rating 0-100; assay type: in vivo
[7] = system: pigweed (Amaranthus retroflexus); experiment: Test A postemergence, visual injury rating 0-100; assay type: in vivo; conditions: 0 to 100 scale
[8] = system: ragweed (common ragweed, Ambrosia elatior); experiment: Test A postemergence, visual injury rating 0-100; assay type: in vivo; conditions: 0 to 100 scale
[9] = system: ryegrass, Italian (Italian ryegrass, Lolium multiflorum); experiment: Test A postemergence, visual injury rating 0-100; assay type: in vivo; conditions: 0 to 100 scale
[10] = system: corn (Zea mays); experiment: Test A postemergence, visual injury rating 0-100; assay type: in vivo; conditions: 0 to 100 scale
[11] = system: blackgrass (Alopecurus myosuroides); experiment: Test A postemergence, visual injury rating 0-100; assay type: in vivo; conditions: 0 to 100 scale
[12] = system: barnyardgrass (Echinochloa crus-galli); experiment: Test A postemergence, visual injury rating 0-100; assay type: in vivo; conditions: 0 to 100 scale
[13] = system: foxtail, giant (giant foxtail, Setaria faberii); experiment: Test A postemergence, visual injury rating 0-100; assay type: in vivo; conditions: 0 to 100 scale
[14] = system: wheat (Triticum aestivum); experiment: Test A postemergence, visual injury rating 0-100; assay type: in vivo; conditions: 0 to 100 scale
[15] = system: kochia (Kochia scoparia); experiment: Test A postemergence, visual injury rating 0-100; assay type: in vivo; conditions: 0 to 100 scale
[16] = system: galium (catchweed bedstraw, Galium aparine); experiment: Test A postemergence, visual injury rating 0-100; assay type: in vivo; conditions: 0 to 100 scale
[17] = system: ducksalad (Heteranthera limosa); experiment: Test B flooded paddy test, visual rating 0-100; conditions: Flood, 250 g ai/ha, applied to paddy water, rated after 13 to 15 days
[18] = system: rice (Oryza sativa); experiment: Test B flooded paddy test, visual rating 0-100 (0 no effect, 100 complete control); conditions: Flood, 250 g ai/ha, applied to paddy water, rated after 13 to 15 days
[19] = system: barnyardgrass (Echinochloa crus-galli); experiment: Test B flooded paddy test, visual rating 0-100; conditions: Flood, 250 g ai/ha, applied to paddy water, rated after 13 to 15 days

| SMILES | Barnyardgrass plant response rating (0 to 100 scale) ([1]; 125 g ai/ha) | Barnyardgrass plant response rating (0 to 100 scale) ([1]; 500 g ai/ha) | Pigweed plant response rating (0 to 100 scale) ([2]; 125 g ai/ha) | Pigweed plant response rating (0 to 100 scale) ([2]; 500 g ai/ha) | Ragweed plant response rating (0 to 100 scale) ([3]; 125 g ai/ha) | Ragweed plant response rating (0 to 100 scale) ([3]; 500 g ai/ha) | Ryegrass, Italian plant response rating (0 to 100 scale) ([4]; 125 g ai/ha) | Ryegrass, Italian plant response rating (0 to 100 scale) ([4]; 500 g ai/ha) | Foxtail, Giant plant response rating (0 to 100 scale) ([5]; 125 g ai/ha) | Foxtail, Giant plant response rating (0 to 100 scale) ([5]; 500 g ai/ha) | Kochia plant response rating (0 to 100 scale) ([6]; 125 g ai/ha) | Kochia plant response rating (0 to 100 scale) ([6]; 500 g ai/ha) | Pigweed plant response rating ([7]; 125 g ai/ha) | Pigweed plant response rating ([7]; 500 g ai/ha) | Ragweed plant response rating ([8]; 125 g ai/ha) | Ragweed plant response rating ([8]; 500 g ai/ha) | Ryegrass, Italian plant response rating ([9]; 125 g ai/ha) | Ryegrass, Italian plant response rating ([9]; 500 g ai/ha) | Corn plant response rating ([10]; 125 g ai/ha) | Corn plant response rating ([10]; 500 g ai/ha) | further results |
| --- | --- | --- | --- | --- | --- | --- | --- | --- | --- | --- | --- | --- | --- | --- | --- | --- | --- | --- | --- | --- | --- |
| CC1=[N+]([O-])C(C(=O)Nc2cccc(F)c2F)C(c2cc(F)c(F)c(F)c2)C1 (stereo not shown) [Compound 95] | 90 | 90 | 20 | 80 | 20 | 80 | 30 | 90 | 90 | 100 | 0 | 70 | 0 | 20 | 0 | 20 | 40 | 70 | 0 | 50 | Blackgrass plant response rating ([11]; 125 g ai/ha): 60; Blackgrass plant response rating ([11]; 500 g ai/ha): 70; Barnyardgrass plant response rating ([12]; 125 g ai/ha): 70; Barnyardgrass plant response rating ([12]; 500 g ai/ha): 80; Foxtail, Giant plant response rating ([13]; 125 g ai/ha): 80; Foxtail, Giant plant response rating ([13]; 500 g ai/ha): 90; Wheat plant response rating ([14]; 125 g ai/ha): 10; Wheat plant response rating ([14]; 500 g ai/ha): 60; Kochia plant response rating ([15]; 125 g ai/ha): 30; Kochia plant response rating ([15]; 500 g ai/ha): 50; Galium plant response rating ([16]; 125 g ai/ha): 0; Galium plant response rating ([16]; 500 g ai/ha): 50; Ducksalad plant response rating (0 to 100 scale) [17]: 100; Rice plant response rating (0 to 100 scale) [18]: 0; Barnyardgrass plant response rating (0 to 100 scale) [19]: 80 |
| COc1cc(OC)cc(C2CC(C)=[N+]([O-])C2C(=O)Nc2cccc(F)c2F)c1 (stereo not shown) [Compound 96] | 90 | 100 | 0 | 10 | 0 | 0 | 0 | 0 | 90 | 90 | 0 | 40 | 0 | 0 | 0 | 30 | 0 | 60 | 10 | 70 | Blackgrass plant response rating ([11]; 125 g ai/ha): 40; Blackgrass plant response rating ([11]; 500 g ai/ha): 90; Barnyardgrass plant response rating ([12]; 125 g ai/ha): 60; Barnyardgrass plant response rating ([12]; 500 g ai/ha): 90; Foxtail, Giant plant response rating ([13]; 125 g ai/ha): 40; Foxtail, Giant plant response rating ([13]; 500 g ai/ha): 90; Wheat plant response rating ([14]; 125 g ai/ha): 0; Wheat plant response rating ([14]; 500 g ai/ha): 10; Kochia plant response rating ([15]; 125 g ai/ha): 0; Kochia plant response rating ([15]; 500 g ai/ha): 0; Galium plant response rating ([16]; 125 g ai/ha): 0; Galium plant response rating ([16]; 500 g ai/ha): 20; Ducksalad plant response rating (0 to 100 scale) [17]: 0; Rice plant response rating (0 to 100 scale) [18]: 0; Barnyardgrass plant response rating (0 to 100 scale) [19]: 0 |
